SMILES strings stand for the structures.

For orientation: IC50 means the concentration at which inhibition is half-maximal.

The test system of one data set is MOLP-8. In words: Cell viability assay (Cell Titer-Glo), HMCL. The class given is cell-based. The settings on record: Homo sapiens, MOLP-8, 96 h. As to the method:
(§1) The panel of 17 HMCL cell lines were incubated with increasing concentrations of Ironomycin (A), AM23 (B) or vehicle for 96H.
(§2) HMCL cell lines were cultured for 4 days in 96-well flat-bottom microtiter plates in RPMI 1640 medium or DMEM medium, 10% or 20% FCS (control medium) in the presence of various compounds. The number of viable cells in culture was determined using the Cell Titer-Glo Luminescent Cell Viability Assay from Promega, Madison, WI, USA using a Centro LB 960 luminometer (Berthold Technologies, Bad Wildbad, Germany).
(§3) This test is based on quantitation of the intracellular ATP present, which signals the presence of metabolically active cells. Data are expressed as the mean percentage of six replicates, normalized to the untreated control.
(In general: Cellular ATP, detected with luciferase, serves as a proxy for viable cell number.)

Another data set relates to OPM-2. In words: Cell viability assay (Cell Titer-Glo), HMCL. Type of data set: cell-based. The settings on record: Homo sapiens, OPM-2, 96 h. As to the method: as §1, §2, §3
In another data set the test system is XG-1. In words: Cell viability assay (Cell Titer-Glo), HMCL. Type of data set: cell-based. As to conditions: Homo sapiens, 96 h. As to the method: as §1, §2, §3
For a further data set, the system named is XG-7. In words: Cell viability assay (Cell Titer-Glo), HMCL. The class given is cell-based. The settings on record: Homo sapiens, 96 h. As for the experimental part:
as §1, §2, §3

The subject of a further data set is XG12. The data set can be described thus: Cell viability assay (Cell Titer-Glo), HMCL. The class given is cell-based. As to conditions: Homo sapiens, 96 h. As to the method: as §1, §2, §3
A further data set has as its system XG20. In words: Cell viability assay (Cell Titer-Glo), HMCL. The class given is cell-based. The settings on record: Homo sapiens, 96 h. As for the experimental part:
as §1, §2, §3

Another data set concerns XG21. In words: Cell viability assay (Cell Titer-Glo), HMCL. The class given is cell-based. As to conditions: Homo sapiens, 96 h. As to the method:
as §1, §2, §3

The subject of a further data set is XG24. In words: Cell viability assay (Cell Titer-Glo), HMCL. The class given is cell-based. As to conditions: Homo sapiens, 96 h. As to the method:
as §1, §2, §3

The next data set deals with XG28. The data set can be described thus: Cell viability assay (Cell Titer-Glo), HMCL. As to conditions: Homo sapiens, 96 h. Type of data set: cell-based. As for the experimental part: as §1, §2, §3
The next data set deals with XG6. The data set can be described thus: Cell viability assay (Cell Titer-Glo), HMCL. The class given is cell-based. The settings on record: Homo sapiens, XG6, 96 h. As for the experimental part:
as §1, §2, §3

In another data set the test system is MM cell lines. The data set can be described thus: Cell growth inhibition in panel of MM cell lines. Type of data set: cell-based, human. The settings on record: 96H. As for the experimental part:
as §1, §2, §3
The therapeutic interest of iron metabolism inhibitors AM5 (Ironomycin) and AM23 was further investigated using large collection of 18 MM cell lines (Moreaux J et al. Haematologica 2011; Vikova V et al. Theranostics 2019). The IC50 of Ironomycin and AM23 respectively are illustrated in the Table 5 hereunder: […]

The test system of the next data set is primary MM cells. The data set can be described thus: Assay on primary MM cells of patients (flow cytometry). Type of data set: cell-based, human. The settings on record: n=5, with IL-6. As to the method:
(§4) Primary MM cells were treated with Ironomycin (A) or AM-23 (B) and incubated during 96H with IL-6. The toxicity on MM cells and non-MM cells was analyzed by flow cytometry and expressed in % of control.
(§5) Bone marrow samples were collected after patients' written informed consent in accordance with the Declaration of Helsinki and institutional research board approval from Montpellier University hospital. Cells are obtained from […] of 5 patients with MM. Cells are obtained by density gradient separation and qualified by Flow cytometry.
(§6) Cells are cultured in Gibco® RPMI-1640 (Glutamax) medium (#6187-010) with 10% FBS at a density of 0.5×10^6 Cell/mL with 2 ng/mL of interleukin-6. Cells are seeded 24H after thawing and treated with various compounds during 72H.
(§7) Total cells were counted with trypan blue and stained with the panel CD38-APC, CD138-PE (Beckman coulter) and analyzed by flow cytometry (Fortessa cytometer, BD Pharmigen). Tumorous MM cells were gated on CD38+ and CD138+.

For the next data set, the system named is non-MM cells. In words: Assay on primary samples of patients, non-MM cells (flow cytometry). As to conditions: primary samples of patients, n=5. The class given is cell-based, human. As for the experimental part: as §4, §5, §6, §7
(In general: Flow cytometry measures light scatter and fluorescence of single cells or particles in a stream.)

As to `CC[C@@H](C(=O)[C@@H](C)[C@@H](O)[C@H](C)[C@@H]1O[C@@H]([C@@H](CC)C(=O)O)CC[C@@H]1C)[C@H]1O[C@]2(C=C[C@@H](NC3CC3)[C@]3(CC[C@@](C)([C@H]4CC[C@](O)(CC)[C@H](C)O4)O3)O2)[C@H](C)C[C@@H]1C` [AM23], the IC50 with MOLP-8 was determined as 13 nM; with OPM-2, 1.4 nM; with XG-1, 21.1 nM; with XG-7, 11.8 nM; in the data set with XG12 it was 0.8 nM; in the data set with XG20, 154 nM. For the same molecule, the IC50 in the data set with XG21 amounted to 34.3 nM; in the data set on XG24, 8.8 nM; in the data set with XG28, 13 nM; in the data set on XG6 it was 3.8 nM. Further, the “cell growth inhibition / toxicity on MM cell lines” value was “validated the toxicity” in the data set on MM cell lines and “kill MM cells with nanomolar concentration” in the data set on MM cell lines (listed as AM-23). Further, in the data set on primary MM cells, the “toxicity on primary MM cells of patients” value is listed as “validated the therapeutic interest”. Further, the “toxicity for non-tumoral cells” value in the data set on non-MM cells is on record as “without significant toxicity”.

Values taken from patent US20250281449A1, “NITROGEN-CONTAINING ANALOGS OF SALINOMYCIN FOR USE IN MULTIPLE MYELOMA (MM)” (Centre National de la Recherche Scientifique, priority 2021, published 2025).
